Source: US7713969B2, “Compositions and methods for treatment of cancer” (ArQule, Inc., priority 2005, dated 2010)

Key:
[1] = system: PACA-2 human pancreatic cancer xenograft; assay: Pancreatic cancer xenograft model (Example 88); format: in vivo, mice; settings: for optimal tumor growth inhibition: daily 5 days on/2 off, 20 doses
Method: PACA-2 human pancreatic cancer cells were inoculated subcutaneously into female athymic nude mice (5×10^6 cells/mouse) and allowed to form palpable tumors. Once the tumors reached approximately 60 mm^3, the animals were treated orally with (−)-trans-3-(5,6-dihydro-4H-pyrrolo[3,2,1-ij]quinolin-1-yl)-4(1H-indol-3-yl) pyrrolidine-2,5-dione at 200 mg/kg or 300 mg/kg or vehicle control daily (5 consecutive days, followed by a 2 day dosing holiday). (−)-trans-3-(5,6-dihydro-4H-pyrrolo[3,2,1-ij]quinolin-1-yl)-4(1H-indol-3-yl)pyrrolidine-2,5-dione was formulated in PEG 400:20% Vitamin E TPGS (60:40). The animals received a total of 20 doses of (−)-trans-3-(5,6-dihydro-4H-pyrrolo[3,2,1-ij]quinolin-1-yl)-4(1H-indol-3-yl)pyrrolidine-2,5-dione or vehicle control. Tumors were measured throughout treatment and the post-treatment observation period. Each point represents the mean±SEM of ten tumors. (See FIG. 12)

c-Met = c-Met (Homo sapiens, UniProt P08581); assay: c-Met phosphorylation, Western blot (Example 80); format: cell-based; set-up: whole cell extracts were prepared; endogenous in cells; host or cells: MDA-MB-231; settings: MDA-MB-231 cells, serum-deprived 16 hours, 100 ng/ml HGF/SF 10 minutes
Sequence of c-Met (P08581 25-1390): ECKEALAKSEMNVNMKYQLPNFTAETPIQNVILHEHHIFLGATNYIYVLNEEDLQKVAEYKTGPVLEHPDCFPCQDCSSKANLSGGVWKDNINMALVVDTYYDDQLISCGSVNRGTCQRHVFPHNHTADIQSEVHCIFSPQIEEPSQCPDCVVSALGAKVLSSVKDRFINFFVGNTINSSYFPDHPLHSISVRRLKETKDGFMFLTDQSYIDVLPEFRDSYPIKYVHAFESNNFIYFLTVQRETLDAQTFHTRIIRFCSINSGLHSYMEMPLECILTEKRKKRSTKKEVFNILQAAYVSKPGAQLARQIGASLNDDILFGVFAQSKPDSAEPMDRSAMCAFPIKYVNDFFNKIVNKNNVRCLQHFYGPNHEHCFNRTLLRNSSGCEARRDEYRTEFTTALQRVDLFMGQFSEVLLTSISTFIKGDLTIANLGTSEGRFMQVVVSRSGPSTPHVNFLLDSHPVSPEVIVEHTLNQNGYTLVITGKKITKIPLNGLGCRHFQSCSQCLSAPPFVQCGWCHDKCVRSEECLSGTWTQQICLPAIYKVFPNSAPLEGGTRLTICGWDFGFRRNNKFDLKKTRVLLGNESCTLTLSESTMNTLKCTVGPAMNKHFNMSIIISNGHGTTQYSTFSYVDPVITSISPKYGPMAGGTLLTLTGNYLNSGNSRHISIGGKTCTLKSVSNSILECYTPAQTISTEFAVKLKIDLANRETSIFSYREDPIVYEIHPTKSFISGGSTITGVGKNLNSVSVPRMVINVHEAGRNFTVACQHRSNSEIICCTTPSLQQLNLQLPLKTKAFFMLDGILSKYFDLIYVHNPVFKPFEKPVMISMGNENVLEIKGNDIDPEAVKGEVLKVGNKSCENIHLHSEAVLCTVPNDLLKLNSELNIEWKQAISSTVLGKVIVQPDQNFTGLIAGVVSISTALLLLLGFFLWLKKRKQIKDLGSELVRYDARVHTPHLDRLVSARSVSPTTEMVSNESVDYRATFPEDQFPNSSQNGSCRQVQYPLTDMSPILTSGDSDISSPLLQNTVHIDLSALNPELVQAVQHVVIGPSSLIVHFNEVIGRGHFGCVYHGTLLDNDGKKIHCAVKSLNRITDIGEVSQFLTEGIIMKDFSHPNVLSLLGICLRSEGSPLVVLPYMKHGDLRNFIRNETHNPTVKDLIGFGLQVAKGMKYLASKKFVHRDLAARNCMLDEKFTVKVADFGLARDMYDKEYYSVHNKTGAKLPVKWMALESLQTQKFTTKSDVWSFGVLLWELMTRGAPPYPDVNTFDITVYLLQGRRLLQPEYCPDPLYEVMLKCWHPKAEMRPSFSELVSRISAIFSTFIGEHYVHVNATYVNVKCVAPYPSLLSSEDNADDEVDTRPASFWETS
Method: MDA-MB-231 cells were serum-deprived overnight (16 hours) in the absence or in the presence of the indicated concentrations of the separate enantiomers (+)-trans-3-(5,6-dihydro-4H-pyrrolo[3,2,1-ij]quinolin-1-yl)-4(1H-indol-3-yl)pyrrolidine-2,5-dione and (−)-trans-3-(5,6-dihydro-4H-pyrrolo[3,2,1-ij]quinolin-1-yl)-4(1H-indol-3-yl)pyrrolidine-2,5-dione. Cells were treated with 100 ng/ml recombinant human Hepatocyte Growth Factor/Scatter Factor (HGF/SF) (R&D Systems #294-HG) for 10 minutes. Whole cell extracts were prepared in lysis buffer (20 mM Trwas-HC1 pH 7.5, 150 mM NaCl, 1 mM Na2EDTA, 1 mM EGTA, 1% Triton X-100, 2.5 mM sodium pyrophosphate, 1 mM beta-glycerophosphate, 1 mM Na3VO4, 1 μg/ml leupeptin, 1 mM phenylmethylsulfonyl fluoride) and sonicated. Protein concentration was measured by Bradford assay using the BioRad reagent (BioRad, Hercules, Calif.), according to the manufacturer's directions. Samples (50 μg of protein) were resolved by 8% SDS-PAGE under reducing conditions, and transferred onto a PVDF membrane (BioRad). […] Proteins were detected by incubation overnight at 4° C. in TBS-T with 5% milk and either a polyclonal antibody against phosphorylated c-Met (#3121), phosphorylated Erk1/2 (#9101), total Erk1/2 protein (#9102) (Cell Signaling Technology); or a monoclonal antibody against […] (A-5441) (Sigma), which was used as a control for total protein loading. […]

MDA-MB-231 cells = assay: Colony counting, surviving fraction (Example 78); format: cell-based, human; settings: Homo sapiens, MDA-MB-231; two days incubation, colonies counted two weeks later; read-out: IC50 (surviving fraction equaled 50)
Method: MDA-MB-231 cells (ATCC# HTB-26), grown in DMEM plus 15% heat inactivated fetal bovine serum plus 10 mM HEPES pH 7.5, were plated in 60 mm plates (2×10^5 cells per plate). After two days candidate compounds in DMSO at various concentrations were diluted in media and added to individual plates such that the final DMSO concentration in the cell culture media was 0.1%. After two days incubation the culture was trypsinized, cells were washed with media, counted using a hemocytometer and 500 cells, including cell bodies, were plated in […] in media. Two weeks later the media was removed and the cell colonies were fixed with methanol for 10 minutes, stained with 1% crystal violet 10 minutes, washed with water and air dried. Cell colonies were visually counted when there were greater then 50 cells present per colony. Plating efficiency was defined as the average number of colonies formed divided by 500. The surviving fraction was defined as the plating efficiency of a candidate compound divided by the plating efficiency of DMSO multiplied by 100. For candidate compound titrations, the IC50 concentration was determined by fitting the equation y=AeBx to the data points and extrapolating the concentration where surviving fraction equaled 50. […]

## O=C1NC(=O)C(c2cn3c4c(cccc24)CCC3)C1c1c[nH]c2ccccc12 (single isomer, unassigned; (-))
[1]; 200 mg/kg and 300 mg/kg oral administration
  change in body weight: no significant change in body weight
[1]; 200 mg/kg orally
  optimal tumor growth inhibition: 58%
[1]; 300 mg/kg orally
  optimal tumor growth inhibition: 60%
c-Met
  concentration that inhibits basal and HGF-induced autophosphorylation of c-Met: at least 500 nM
MDA-MB-231 cells
  IC50: 620 nM
